Test results taken from patent US20060276486A1, “Lklf/klf2 gene expression promoter” (KOWA CO., KTD., priority 2003, published 2006).

How the values were obtained:
LKLF/KLF2 gene [1] = experiment: LKLF/KLF2 gene expression analysis in HUVEC by Human Genome Focus Array (GeneChip); format: cell-based; conditions: control 271
Experimental: Two days after inoculation of normal human umbilical vein endothelial cells (HUVEC) at 3×10^5 cells/10 cm dish, pitavastatin calcium (indicated as “Pit” in FIG. 1) was added to 1.1 μmol/L. Dimethyl sulfoxide, a solvent for pitavastatin calcium, was added to a control (final concentration: 0.0066 v/v %). Eight hours after the addition, total RNAs were extracted with “ISOGEN” (trade mark, product of NIPPON GENE CO., LTD.). The following procedures were conducted in accordance with the procedures manual of Affymetrix. Inc. Described specifically, following the methods known per se in the art, mRNA was isolated from each total RNA obtained above, and based on the mRNA, cDNA was synthesized. Further, biotin-labeled cRNA was synthesized by in vitro transcription. Subsequent to purification, the biotin-labeled cRNA was subjected to fragmentation by heat treatment to prepare fragmented cRNA for use in a gene expression analysis.
Gene expression analysis method: The fragmented cRNA was poured into “Human Genome Focus Array” (trade name, product of Affymetrix, Inc.), and hybridization was conducted at 45° C. for 16 hours. […] The information was analyzed by “GENECHIP SOFTWARE” (trade name, product of Affymetrix, Inc.) to effect a comparison in expression level.

LKLF/KLF2 gene [2] = experiment: LKLF/KLF2 gene expression in HUVEC by reverse transcription and TaqMan analysis (ABI PRISM 7000); format: cell-based, human; conditions: for activities to promote the expression of LKLF/KLF2 gene (summary statement): cultured human cell system; for effect of added metabolite on the increase of LKLF/KLF2 gene expression by pitavastatin calcium: pitavastatin calcium 1 μmol/L in combination with MVA 100 μmol/L, FPP, GGPP or Cho 10 μmol/L, 8 hours

Compound	activities to promote the expression of LKLF/KLF2 gene (summary statement) (LKLF/KLF2 gene [2])	effect of added metabolite on the increase of LKLF/KLF2 gene expression by pitavastatin calcium (LKLF/KLF2 gene [2]; HUVEC)	other results
O=C(O)C[C@H](O)C[C@H](O)/C=C/c1c(C2CC2)nc2ccccc2c1-c1ccc(F)cc1 [pitavastatin calcium, (3R,5S,6E)-7-[2-cyclopropyl-4-(4-fluorophenyl)-3-quinolyl]-3,5-dihydroxy-6-heptenoic acid]	has activities to promote the expression of LKLF/KLF2 gene	–	expression of LKLF/KLF2 gene in HUVEC (expression level) with addition of GGPP (LKLF/KLF2 gene [1]; pitavastatin calcium 1.1 μmol/L plus geranylgeranyl pyrophosphate (GGPP), 8 hours): 355; expression of LKLF/KLF2 gene in HUVEC (expression level) (LKLF/KLF2 gene [1]; pitavastatin calcium 1.1 μmol/L, 8 hours after addition): 761; increase of expression of LKLF/KLF2 gene in comparison with the group added with no drug (LKLF/KLF2 gene [2]; HUVEC, 1 μmol/L alone, 8 hours after addition): 693%
CC(C)=CCC/C(C)=C/CC/C(C)=C/COP(=O)(O)OP(=O)(O)O [farnesyl pyrophosphate]	–	reduced	–
CSCC[C@H](NC(=O)c1ccc(NC[C@@H](N)CS)cc1-c1ccccc1)C(=O)O [FTI-276]	in possession of activities to promote the expression of LKLF/KLF2 gene	–	–
CC(C)CCC[C@@H](C)[C@H]1CC[C@H]2[C@@H]3CC=C4C[C@@H](O)CC[C@]4(C)[C@H]3CC[C@]12C [cholesterol]	–	not affected	–
C[C@@](O)(CCO)CC(=O)O [mevalonic acid]	–	reduced	–
CC(C)=CCC/C(C)=C/CC/C(C)=C/CC/C(C)=C/COP(=O)(O)OP(=O)(O)O [geranylgeranyl pyrophosphate]	–	reduced	–
COC(=O)[C@H](CC(C)C)NC(=O)c1ccc(NC[C@@H](N)CS)cc1-c1ccccc1 [GGTI-286]	in possession of activities to promote the expression of LKLF/KLF2 gene	–	–
